# Patent publication US20150132328A1 (priority 2011, published 2015)
# Where two headings read alike, the source gives them in different places.
# How the values were obtained:
# THP-1 cells = test system: THP-1 cells
# From the text: We proceeded to perform some related to the proliferative stimulation of the peptide in presence of other divalent cations such as magnesium, copper, and manganese.
# human leukocytes = details: for Phagocytosis: peptide 10^-10M + zinc 10^-9M
# From the text: In order to test a different effect of the proliferation, we decided to investigate the effect of peptide+zinc versus peptide+zinc+DTPA on human leukocytes phagocytosis.
# BMK-16myc cells tumor = details: for Metastases (animals with detected metastases/total number of animals): Tumor + IMMP
# From the text: (§1) We used BMK-16myc cells which are baby mouse kidney cells immortalized with genes of 16 protein of the human papilloma virus (HPV) and the myc gene, which grow in mouse, are highly invasive and produce metastases rapidly. One million cells were implanted subcutaneously in the back of each mouse. […] Subsequently, the animals were sacrificed and the tumors under the back skin as well as thymus, spleen, liver and kidney were collected for histopathological examination.
# BMK-16myc cells = test system: BMK-16myc cells
# From the text: as §1
# The cellular viability that was quantified by the MTT method, indicates the mitochondrial activity.
# [1] = test system: rats with rheumatoid arthritis
# From the text: This produces that in the third week appears edema of the cephalic and caudal extremities, which can be measured with a vernier. Inflammation is due to the presence of the own autoimmune response against […] of the rat.
# newborn rat thymocytes = details: With A
# [2] = test system: antibodies against Newcastle; details: 10 ng/dose with Newcastle vaccine
# [3] = test system: rats with acute hepatitis induced with CCI4;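 further: endpoints determined in blood and liver tissue collected when the rats were sacrificed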
# [4] = test system: stress model induced in mice; details: for Corticosterone / IL-1: Table 22
# [5] = Acute Hepatitis + IMMP, time of CCI4 24
# [6] = Acute Hepatitis + IMMP, time of CCI4 48
# [7] = Acute Hepatitis + IMMP, time of CCI4 72
# [8] = STRESS + IMMP, 10 ng/dose i.p., Table 21
substance,measurement,setting,value
Peptide LEDGPKFL + Zinc [IMMP],Concentration at which plateau / maximum response of stimulation is reached,THP-1 cells,10-10 M
same,Increase of potency by adding the ion (times),THP-1 cells,~500 times
same,Increase of the potency of the peptide by zinc (times),THP-1 cells,more than 200 times
same,EC50,THP-1 cells; read-out: Effective concentration 50,10 pM
same,Phagocytosis,human leukocytes; 24 h,56 ± 2 arbitrary fluorescence intensity units
same,Phagocytosis,human leukocytes; 48 h,185 ± 18 arbitrary fluorescence intensity units
same,Increase of phagocytosis,human leukocytes; 48 hours,about four times
same,Metastases (animals with detected metastases/total number of animals),BMK-16myc cells tumor; Kidney,0/5
same,Metastases (animals with detected metastases/total number of animals),BMK-16myc cells tumor; Liver,3/5
same,Metastases (animals with detected metastases/total number of animals),"BMK-16myc cells tumor; Spleen, 200 ng Kg i.p., 10 doses",0/5
same,Metastases (animals with detected metastases/total number of animals),BMK-16myc cells tumor; Thymus,0/5
same,Animals in which development of metastasis was reduced,"BMK-16myc cells tumor; mouse, in vivo",40%
same,Tumor size vs untreated group,BMK-16myc cells tumor; tendency to smaller tumors,not statistically significant
same,Animals with metastases in liver,BMK-16myc cells tumor; tumor + IMMP (100% untreated),60%
same,Difference with respect to control,BMK-16myc cells,not observed any difference with respect to control
same,"Cells proliferation (control percent, MTT)",BMK-16myc cells; IMMP (M) −8,102 ± 2.9%
same,"Cells proliferation (control percent, MTT)",BMK-16myc cells; IMMP (M) −9,104 ± 3.1%
same,"Cells proliferation (control percent, MTT)",BMK-16myc cells; IMMP (M) −10,102 ± 3.5%
same,"Cells proliferation (control percent, MTT)",BMK-16myc cells; IMMP (M) −11,103 ± 2.7%
same,"Cells proliferation (control percent, MTT)",BMK-16myc cells; IMMP (M) −12,102 ± 3.1%
same,Number of rats showing Inflammation 0%,[1]; AR + treatment,3
same,Number of rats showing Inflammation 50%,[1]; AR + treatment,3
same,Number of rats showing Inflammation 100% of palmar and plantar pad,[1]; AR + treatment,6
same,Number of rats showing Inflammation 0%,"[1]; IMMP alone, no arthritis",0
same,Number of rats showing Inflammation 50%,"[1]; IMMP alone, no arthritis",0
same,Number of rats showing Inflammation 100% of palmar and plantar pad,"[1]; IMMP alone, no arthritis",0
same,Animals with inflammation reduced at 50%,"[1]; rat, in vivo",25%
same,Animals with inflammation reduced at 100%,"[1]; rat, in vivo",25%
same,Concentrations that increased the proliferative response,human lymphocytes,10-10 M
same,Cells Percent CD4,newborn rat thymocytes; [M] 10^−6,15.1 ± 2.5%
same,Cells Percent CD8,newborn rat thymocytes; [M] 10^−6,5.3 ± 1.5%
same,Cells Percent DN,newborn rat thymocytes; [M] 10^−6,6.6 ± 1.7%
same,Cells Percent DP,newborn rat thymocytes; [M] 10^−6,72.2 ± 1.5%
same,Cells Percent CD4,newborn rat thymocytes; [M] 10^−7,14.2 ± 3.7%
same,Cells Percent CD8,newborn rat thymocytes; [M] 10^−7,6.0 ± 2.2 %
same,Cells Percent DN,newborn rat thymocytes; [M] 10^−7,3.7 ± 0.2%
same,Cells Percent DP,newborn rat thymocytes; [M] 10^−7,73.3 ± 2.6%
same,Cells Percent CD4,newborn rat thymocytes; [M] 10^−8,13.9 ± 2.6 %
same,Cells Percent CD8,newborn rat thymocytes; [M] 10^−8,6.1 ± 0.2 %
same,Cells Percent DN,newborn rat thymocytes; [M] 10^−8,7.1 ± 2.8%
same,Cells Percent DP,newborn rat thymocytes; [M] 10^−8,74.8 ± 0.7 %
same,Cells Percent CD4,newborn rat thymocytes; [M] 10^−9,17.7 ± 1.9 %
same,Cells Percent CD8,newborn rat thymocytes; [M] 10^−9,4.8 ± 1.9%
same,Cells Percent DN,newborn rat thymocytes; [M] 10^−9,7.0 ± 1.1 %
same,Cells Percent DP,newborn rat thymocytes; [M] 10^−9,70.5 ± 1.2 %
same,Cells Percent CD4,newborn rat thymocytes; [M] 10^−10,16.7 ± 1.0 %
same,Cells Percent CD8,newborn rat thymocytes; [M] 10^−10,4.7 ± 2.2%
same,Cells Percent DN,newborn rat thymocytes; [M] 10^−10,5.1 ± 1.9%
same,Cells Percent DP,newborn rat thymocytes; [M] 10^−10,73.3 ± 3.0%
same,Cells Percent CD4,newborn rat thymocytes; [M] 10^−11,15.4 ± 0.8 %
same,Cells Percent CD8,newborn rat thymocytes; [M] 10^−11,6.0 ± 1.7%
same,Cells Percent DN,newborn rat thymocytes; [M] 10^−11,5.1 ± 2.0%
same,Cells Percent DP,newborn rat thymocytes; [M] 10^−11,74.8 ± 5.4%
same,Cells Percent CD4,newborn rat thymocytes; [M] 10^−12,16.7 ± 0.9 %
same,Cells Percent CD8,newborn rat thymocytes; [M] 10^−12,6.0 ± 0.5 %
same,Cells Percent DN,newborn rat thymocytes; [M] 10^−12,6.4 ± 0.4%
same,Cells Percent DP,newborn rat thymocytes; [M] 10^−12,71.8 ± 3.5 %
same,Antibody production against Newcastle (number of times the serum could be diluted with 100% of the response),[2]; Day 13,0
same,Antibody production against Newcastle (number of times the serum could be diluted with 100% of the response),[2]; Day 23,18.0
same,Antibody production against Newcastle (number of times the serum could be diluted with 100% of the response),[2]; Day 30,64.5
same,Antibody production against Newcastle (number of times the serum could be diluted with 100% of the response),[2]; Day 37,60.2
same,Serum ALT,[3]; [5],351.0 ± 10.4 UI/L
same,Serum AST,[3]; [5],493.6 ± 30.3 UI/L
same,Serum PA (alkaline phosphatase),[3]; [5],1139.0 ± 86.8 UI/L
same,Serum ALT,[3]; [6],275.54 ± 22.3 UI/L
same,Serum AST,[3]; [6],377.0 ± 17.7 UI/L
same,Serum PA (alkaline phosphatase),[3]; [6],1287.5 ± 83.6 UI/L
same,Serum ALT,[3]; [7],233.0 ± 20.8 UI/L
same,Serum AST,[3]; [7],230.2 ± 15.4 UI/L
same,Serum PA (alkaline phosphatase),[3]; [7],1306.2 ± 90.7 UI/L
same,Hepatic glutathione,"[3]; CCI4 + IMMP, 24 hours",13.3 ± 3.3 ng/mg of tissue
same,Relative weight of the liver (organ weight / weight of the animal),"[3]; CCI4 + IMMP, 24 hours after CCI4",8.0 ± 0.9 ^ relative units
same,Hepatic glutathione,"[3]; CCI4 + IMMP, 48 hours",14.2 ± 2.8 ng/mg of tissue
same,Relative weight of the liver (organ weight / weight of the animal),"[3]; CCI4 + IMMP, 48 hours after CCI4",6.8 ± 0.7 relative units
same,Hepatic glutathione,"[3]; CCI4 + IMMP, 72 hours",3.7 ± 1.6 ng/mg of tissue
same,Relative weight of the liver (organ weight / weight of the animal),"[3]; CCI4 + IMMP, 72 hours after CCI4",5.7 ± 0.5 relative units
same,Relative weight of the liver (organ weight / weight of the animal),"[3]; IMMP alone, no CCI4, 24 hours, 100 ng/kg i.p. x3",5.4 ± 0.5 relative units
same,Relative weight of the liver (organ weight / weight of the animal),"[3]; IMMP alone, no CCI4, 48 hours, 100 ng/kg i.p. x3",5.0 ± 0.4 relative units
same,Relative weight of the liver (organ weight / weight of the animal),"[3]; IMMP alone, no CCI4, 72 hours, 100 ng/kg i.p. x3",4.9 ± 0.2 relative units
same,Hepatic glutathione,"[3]; IMMP alone, 24 hours",3.1 ± 1.0 ng/mg of tissue
same,Hepatic glutathione,"[3]; IMMP alone, 48 hours",3.5 ± 0.3 ng/mg of tissue
same,Hepatic glutathione,"[3]; IMMP alone, 72 hours",5.1 ± 0.6 ng/mg of tissue
same,Serum ALT,"[3]; IMMP alone, time 24",64.0 ± 22.4 UI/L
same,Serum AST,"[3]; IMMP alone, time 24",72.4 ± 4.1 UI/L
same,Serum PA (alkaline phosphatase),"[3]; IMMP alone, time 24",525.0 ± 160 UI/L
same,Serum ALT,"[3]; IMMP alone, time 48",73.1 ± 6.1 UI/L
same,Serum AST,"[3]; IMMP alone, time 48",72.5 ± 3.9 UI/L
same,Serum PA (alkaline phosphatase),"[3]; IMMP alone, time 48",804.5 ± 39.5 UI/L
same,Serum ALT,"[3]; IMMP alone, time 72",71.4 ± 8.4 UI/L
same,Serum AST,"[3]; IMMP alone, time 72",71.6 ± 6.9 UI/L
same,Serum PA (alkaline phosphatase),"[3]; IMMP alone, time 72",604.0 ± 26.9 UI/L
same,Corticosterone,[4]; IMMP alone,33.5 ± 2.1 ng/dL
same,IL-1,[4]; IMMP alone,6.9 ± 0.8 ng/dL
same,WEIGHT,"[4]; IMMP alone, Table 22 (title: C57BL/6J mice with lymphoma LR.4)",13.8 ± 1.2 g
same,IL-1 serum level,[4]; [8],6.9 ± 0.8 ng/dL
same,WEIGHT,[4]; [8],13.8 ± 1.2 g
same,corticosterone serum level,[4]; [8],33.5 ± 2.1 ng/dL
same,Corticosterone,[4]; STRESS + IMMP,43.1 ± 3.8 ng/dL
same,IL-1,[4]; STRESS + IMMP,18.1 ± 2.0 ng/dL
same,WEIGHT,"[4]; STRESS + IMMP, Table 22 (title: C57BL/6J mice with lymphoma LR.4)",13.1 ± 0.9 g
same,Body weight loss,[4]; stress + IMMP (36% without),11%
same,Increase in corticosteroid production induced by stress,[4]; stress + IMMP (70% without),38%
same,Increase of plasma IL-1 over control,[4]; stress + IMMP (three times without),increased only once
same,Reduction of tumor growth at long term,"lymphoma LR.4; 10 doses for two weeks, from the fourth week",about 50%
same,Body weight (control percent),"lymphoma LR.4; IMMP alone, no tumor, week 0",100 ± 3%
same,Body weight (control percent),"lymphoma LR.4; IMMP alone, no tumor, week 8",101 ± 3%
same,Body weight (control percent),"lymphoma LR.4; IMMP alone, no tumor, week 12",99 ± 4%
same,Body weight (control percent),"lymphoma LR.4; IMMP alone, no tumor, week 16",101 ± 4%
same,Body weight (control percent),"lymphoma LR.4; IMMP alone, no tumor, week 20",102 ± 3%
same,Body weight (control percent),"lymphoma LR.4; IMMP alone, no tumor, week 24",100 ± 3%
same,Body weight (control percent),"lymphoma LR.4; IMMP alone, no tumor, week 28",100 ± 2%
same,Body weight (control percent),"lymphoma LR.4; IMMP alone, no tumor, week 32",100 ± 5%
same,Body weight (control percent),"lymphoma LR.4; IMMP alone, no tumor, week ±4",102 ± 4%
same,Body weight (control percent),"lymphoma LR.4; LR.4 + IMMP, week 0, 200 ng/Kg i.p., ten doses",100 ± 2%
same,Body weight (control percent),"lymphoma LR.4; LR.4 + IMMP, week 8",106 ± 3 %
same,Body weight (control percent),"lymphoma LR.4; LR.4 + IMMP, week 12",118 ± 7 %
same,Body weight (control percent),"lymphoma LR.4; LR.4 + IMMP, week 16",120 ± 9 %
same,Body weight (control percent),"lymphoma LR.4; LR.4 + IMMP, week 20",119 ± 9 %
same,Body weight (control percent),"lymphoma LR.4; LR.4 + IMMP, week 24",120 ± 8 %
same,Body weight (control percent),"lymphoma LR.4; LR.4 + IMMP, week 28",119 ± 11 %
same,Body weight (control percent),"lymphoma LR.4; LR.4 + IMMP, week 32",120 ± 13 %
same,Body weight (control percent),"lymphoma LR.4; LR.4 + IMMP, week ±4",115 ± 5 %
same,Body weight relative to control,"lymphoma LR.4; tumor + IMMP, thirty day (untreated 25% higher)",almost equal to that of the control
